{"source": "patent US20260062422A1", "about": "(Halda Therapeutics OpCo, Inc., priority 2022, published 2026)", "key": {"[1]": {"test": "Cellular growth inhibition, T-Rex 293 SC cells with doxycycline (progesterone receptor isoform B induced), Example 45", "type": "cell-based", "conditions": "progesterone receptor isoform B induced with 10 ng/mL doxycycline, 72 hours, CellTiter-Glo 2.0, Table 11", "method": "The following types of cells were prepared for this experiment: (i) a T-Rex 293 cell line having increased expression of progesterone receptor isoform B protein due to exposure to doxycycline and (ii) a T-Rex 293 cell line lacking increased expression of progesterone receptor isoform B protein. Ability of the test compounds to inhibit proliferation of the foregoing cell types was evaluated according to the procedures set forth below.\nThe doxycycline-inducible progesterone receptor isoform B protein expressing cell line was established using the following protocol: T-Rex 293 cells were purchased from Invitrogen (Cat #R71007) and transfected using Lipofectamine 2000 with the wild-type progesterone receptor B protein sequence cloned into the pcDNA4/TO vector. Transfected cells were selected using 400 μg/mL Zeocin (Invitrogen Cat #R25001). Following selection, single clones were raised and maintained in Dulbecco's Modified Eagle Medium (DMEM) supplemented with 10% w/w Tetracycline-free fetal bovine serum (FBS) and 250 μg/mL Zeocin. Clones were analyzed for expression of progesterone receptor isoform B protein in the presence and absence of 10 ng/mL doxycycline (Sigma Cat #D9891), and a single doxycycline-inducible clone (hereinafter “SC”) was selected for use in downstream assays.\nThe SC cells were seeded on poly-D-lysine coated, black clear-bottom 384-well plates at 2500/well, in 25 μL Phenol Red Free Dulbecco's Modified Eagle Medium (DMEM) supplemented with 10% w/w charcoal-dextran treated fetal bovine serum (FBS) and 1% w/w pen-strep, with or without 10 ng/mL doxycycline. Pen-Strep is a commercially available mixture of penicillin G and streptomycin, which is used in mammalian cell culture media to prevent bacterial contamination. Phenol Red Free Dulbecco's Modified Eagle Medium (DMEM) supplemented with 10% w/w charcoal-dextran treated fetal bovine serum (FBS) and 1% w/w pen-strep, with or without 10 ng/mL doxycycline is herein referred to as Treatment Medium. Following seeding of cells in the plates, the plates were spun at 300×g for 30 seconds, then equilibrated to room temperature for 30 minutes, and then deposited in a humidified tissue culture incubator maintained at 37° C. with 5% CO2.\nAt 24 hours after seeding of the cells, dilutions of test compound were prepared in DMSO and dissolved in Treatment Medium, to achieve a final DMSO concentration of 0.5% w/w, thereby providing the Test Compound Solution. A 25 μL aliquot of the Test Compound Solution was added to cells in the well plates. An equal volume of a solution containing DMSO and Treatment Medium was used as a negative control. Following treatment of cells with Test Compound Solution or said equal volume of a solution containing DMSO and Treatment Medium, the plates were spun at 300×g for 30 seconds, and then left in an incubator for 72 hours.\nAt the end of the treatment duration, cell viability was quantified with CellTiter-Glo 2.0 reagent (Promega Cat #G9243). For this purpose, plates were equilibrated to room temperature for 30 minutes, and then 25 μL of CellTiter-Glo 2.0 reagent was added to cells in the plate wells. Plates were then agitated on a shaker for two minutes at 500 rpm and subsequently incubated at room temperature for 10 minutes. Following incubation, the plates were spun at 3000×g for 30 seconds, then sealed with an optical adhesive cover, and luminescence readings were measured with an EnVision Plate Reader (Perkin Elmer).\nData was normalized using zero luminescence for baseline. A four-parameter non-linear regression curve fit was applied to dose-response data in GraphPad Prism data analysis software to determine the half-maximal growth inhibitory concentration (GI50) for each test compound."}, "[2]": {"molecular_target": "T1, androgen receptor (Homo sapiens, UniProt P10275)", "T1 sequence (P10275 1-920 T878A)": "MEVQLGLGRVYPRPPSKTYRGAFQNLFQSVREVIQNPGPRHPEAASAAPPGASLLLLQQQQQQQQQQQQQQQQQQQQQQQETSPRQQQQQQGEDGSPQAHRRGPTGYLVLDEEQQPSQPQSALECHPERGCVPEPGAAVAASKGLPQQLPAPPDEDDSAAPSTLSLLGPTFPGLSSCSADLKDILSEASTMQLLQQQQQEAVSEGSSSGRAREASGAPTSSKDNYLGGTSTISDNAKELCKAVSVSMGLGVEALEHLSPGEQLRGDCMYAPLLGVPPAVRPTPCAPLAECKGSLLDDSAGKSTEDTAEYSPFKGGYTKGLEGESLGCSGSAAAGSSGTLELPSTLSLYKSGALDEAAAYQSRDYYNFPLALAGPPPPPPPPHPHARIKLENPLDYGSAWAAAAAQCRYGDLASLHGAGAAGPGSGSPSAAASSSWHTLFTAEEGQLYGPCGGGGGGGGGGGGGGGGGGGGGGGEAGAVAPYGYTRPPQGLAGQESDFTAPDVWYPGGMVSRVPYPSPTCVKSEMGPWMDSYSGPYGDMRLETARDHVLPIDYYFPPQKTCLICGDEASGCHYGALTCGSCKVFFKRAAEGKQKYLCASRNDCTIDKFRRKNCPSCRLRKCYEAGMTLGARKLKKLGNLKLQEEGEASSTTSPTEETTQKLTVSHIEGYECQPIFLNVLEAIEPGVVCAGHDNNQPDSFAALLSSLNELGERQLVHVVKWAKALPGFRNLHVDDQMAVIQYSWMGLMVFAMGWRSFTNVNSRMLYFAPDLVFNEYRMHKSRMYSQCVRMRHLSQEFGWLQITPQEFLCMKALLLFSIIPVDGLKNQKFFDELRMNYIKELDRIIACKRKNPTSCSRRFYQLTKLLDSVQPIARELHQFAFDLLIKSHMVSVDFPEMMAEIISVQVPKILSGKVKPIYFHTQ", "test": "Assay for binding affinity to androgen receptor ([3H]methyltrienolone radioligand, cell cytosol)", "conditions": "1 nM [3H]methyltrienolone, 24 hours at 4° C., Table 5", "method": "Fractions of cell cytosol ([…] cell/point) were incubated for 24 hours at 4° C. with 1 nM [^3H]methyltrienolone in the absence or presence of the test compound in a buffer containing 25 mM Hepes-Tris (pH 7.4), 1 mM EDTA, 10 mM Na2MoO4, 2 mM DTT, 5 μM triamcinolone acetonide, and 10% glycerol. Nonspecific binding was determined in the presence of 1 μM testosterone. Following incubation, the samples were filtered rapidly under vacuum through glass fiber filters (GF/B, Packard) presoaked with 0.3% PEI and rinsed several times with ice-cold 50 mM Tris-HCl using a 96-sample cell harvester (Unifilter, Packard). The filters were dried then counted for radioactivity in a scintillation counter (Topcount, Packard) using a scintillation cocktail (Microscint 0, Packard). The results are expressed as a percent inhibition of the control radioligand specific binding. The standard reference compound is testosterone, which is tested in each experiment at several concentrations to obtain a competition curve from which its IC50 is calculated."}}, "data": [{"compound": "Cc1sc2c(c1C)C(c1ccc(Cl)cc1)=N[C@@H](CC(=O)NCCOCCOCCOCCOCCN(C)c1ncc(C(=O)N[C@H]3C(C)(C)[C@H](Oc4ccc(C#N)c(Cl)c4)C3(C)C)cn1)c1nnc(C)n1-2", "note": "[Compound I-3, N-((1r,3r)-3-(3-chloro-4-cyanophenoxy)-2,2,4,4-tetramethylcyclobutyl)-2-((1-((S)-4-(4-chlorophenyl)-2,3,9-trimethyl-6H-thieno[3,2-f][1,2,4]triazolo[4,3-a][1,4]diazepin-6-yl)-2-oxo-6,9,12,15-tetraoxa-3-azaheptadecan-17-yl)(methyl)amino)pyrimidine-5-carboxamide]", "values": [{"measurement": "GI50", "setting": "[1]", "value": "< 0.5", "unit": "µM"}]}, {"compound": "Cc1sc2c(c1C)C(c1ccc(Cl)cc1)=N[C@H](CC(=O)NCCOCCOCCOCCOCCOC1CCN(c3ncc(C(=O)N[C@H]4C(C)(C)[C@H](Oc5ccc(C#N)c(Cl)c5)C4(C)C)cn3)CC1)c1nnc(C)n1-2", "note": "[Compound I-14]", "values": [{"measurement": "GI50", "setting": "[1]", "value": "0.5 to 1.5", "unit": "µM"}]}, {"compound": "Cc1sc2c(c1C)C(c1ccc(OC3CC4(CCN(c5ncc(C(=O)N[C@H]6C(C)(C)[C@H](Oc7ccc(C#N)c(Cl)c7)C6(C)C)cn5)CC4)C3)cc1)=N[C@@H](Cc1ncco1)c1nnc(C)n1-2", "note": "[Compound I-49, N-[3-(3-chloro-4-cyano-phenoxy)-2,2,4,4-tetramethyl-cyclobutyl]-2-[2-[4-[(9S)-4,5,13-trimethyl-9-(oxazol-2-ylmethyl)-3-thia-1,8,11,12-tetrazatricyclo[8.3.0.02,6]trideca-2(6),4,7,10,12-pentaen-7-yl]phenoxy]-7-azaspiro[3.5]nonan-7-yl]pyrimidine-5-carboxamide]", "values": [{"measurement": "GI50", "setting": "[1]", "value": "< 0.5", "unit": "µM"}]}, {"compound": "CCNC(=O)C[C@@H]1N=C(c2ccc(C#CCN3CCN(c4ncc(C(=O)N[C@H]5C(C)(C)[C@H](Oc6ccc(C#N)c(Cl)c6)C5(C)C)cn4)CC3)cc2)c2c(sc(C)c2C)-n2c(C)nnc21", "note": "[Compound I-54, N-[3-(3-chloro-4-cyano-phenoxy)-2,2,4,4-tetramethyl-cyclobutyl]-2-[4-[3-[4-[(9S)-9-[2-(ethylamino)-2-oxo-ethyl]-4,5,13-trimethyl-3-thia-1,8,11,12-tetrazatricyclo[8.3.0.02,6]trideca-2(6),4,7,10,12-pentaen-7-yl]phenyl]prop-2-ynyl]piperazin-1-yl]pyrimidine-5-carboxamide]", "values": [{"measurement": "GI50", "setting": "[1]", "value": "< 0.5", "unit": "µM"}]}, {"compound": "Cc1sc2c(c1C)C(c1ccc(C#CCN3CCN(c4ncc(C(=O)N[C@H]5C(C)(C)[C@H](Oc6ccc(C#N)c(Cl)c6)C5(C)C)cn4)CC3)cc1)=N[C@@H](CC(=O)OC(C)(C)C)c1nnc(C)n1-2", "note": "[Compound I-55]", "values": [{"measurement": "GI50", "setting": "[1]", "value": "< 0.5", "unit": "µM"}]}, {"compound": "CCNC(=O)C[C@@H]1N=C(c2ccc(OCCOC3CCN(c4ncc(C(=O)N[C@H]5C(C)(C)[C@H](Oc6ccc(C#N)c(Cl)c6)C5(C)C)cn4)CC3)cc2)c2c(sc(C)c2C)-n2c(C)nnc21", "note": "[Compound I-60, N-((1r,3r)-3-(3-chloro-4-cyanophenoxy)-2,2,4,4-tetramethylcyclobutyl)-2-(4-(2-(4-((S)-6-(2-(ethylamino)-2-oxoethyl)-2,3,9-trimethyl-6H-thieno[3,2-f][1,2,4]triazolo[4,3-a][1,4]diazepin-4-yl)phenoxy)ethoxy)piperidin-1-yl)pyrimidine-5-carboxamide]", "values": [{"measurement": "GI50", "setting": "[1]", "value": "< 0.5", "unit": "µM"}]}, {"compound": "CCNC(=O)C[C@@H]1N=C(c2ccc(OC3CCN(c4ncc(C(=O)N[C@H]5C(C)(C)[C@H](Oc6ccc(C#N)c(Cl)c6)C5(C)C)cn4)CC3)cc2)c2c(sc(C)c2C)-n2c(C)nnc21", "note": "[Compound I-61]", "values": [{"measurement": "GI50", "setting": "[1]", "value": "< 0.5", "unit": "µM"}]}, {"compound": "CCNC(=O)C[C@@H]1N=C(c2ccc(Oc3ncc(C(=O)N[C@H]4C(C)(C)[C@H](Oc5ccc(C#N)c(Cl)c5)C4(C)C)cn3)cc2)c2c(sc(C)c2C)-n2c(C)nnc21", "note": "[Compound I-84]", "values": [{"measurement": "GI50", "setting": "[1]", "value": "< 0.5", "unit": "µM"}]}, {"compound": "CCNC(=O)C[C@@H]1N=C(c2ccc(OC3CCN(C4CCN(c5ncc(C(=O)N[C@H]6C(C)(C)[C@H](Oc7ccc(C#N)c(Cl)c7)C6(C)C)cn5)CC4)C3)cc2)c2c(sc(C)c2C)-n2c(C)nnc21", "note": "(stereo partly shown) [Compound I-85]", "values": [{"measurement": "GI50", "setting": "[1]", "value": "< 0.5", "unit": "µM"}]}, {"compound": "CCNC(=O)C[C@@H]1N=C(c2ccc(N3CCC(OC4CCN(c5ncc(C(=O)N[C@H]6C(C)(C)[C@H](Oc7ccc(C#N)c(Cl)c7)C6(C)C)cn5)CC4)CC3)cc2)c2c(sc(C)c2C)-n2c(C)nnc21", "note": "[Compound I-114]", "values": [{"measurement": "Kd", "setting": "[2]", "value": "< 0.05", "unit": "µM"}]}, {"compound": "CCNC(=O)C[C@@H]1N=C(c2ccc(N3CC(N(C)C4CN(c5ncc(C(=O)N[C@H]6C(C)(C)[C@H](Oc7ccc(C#N)c(Cl)c7)C6(C)C)cn5)C4)C3)cc2)c2c(sc(C)c2C)-n2c(C)nnc21", "note": "[Compound I-121]", "values": [{"measurement": "Kd", "setting": "[2]", "value": "< 0.05", "unit": "µM"}]}, {"compound": "CCNC(=O)C[C@@H]1N=C(c2ccc(N3CCC(N(C)C4CN(c5ncc(C(=O)N[C@H]6C(C)(C)[C@H](Oc7ccc(C#N)c(Cl)c7)C6(C)C)cn5)C4)CC3)cc2)c2c(sc(C)c2C)-n2c(C)nnc21", "note": "[Compound I-123]", "values": [{"measurement": "Kd", "setting": "[2]", "value": "< 0.05", "unit": "µM"}]}, {"compound": "CCNC(=O)C[C@@H]1N=C(c2ccc(N3CCC(CN4CC(Oc5ncc(C(=O)N[C@H]6C(C)(C)[C@H](Oc7ccc(C#N)c(Cl)c7)C6(C)C)cn5)C4)CC3)cc2)c2c(sc(C)c2C)-n2c(C)nnc21", "note": "[Compound I-124]", "values": [{"measurement": "Kd", "setting": "[2]", "value": "< 0.05", "unit": "µM"}]}, {"compound": "CCNC(=O)C[C@@H]1N=C(c2ccc(N(C3CC3)C3CN(CC4CCN(c5ncc(C(=O)N[C@H]6C(C)(C)[C@H](Oc7ccc(C#N)c(Cl)c7)C6(C)C)cn5)CC4)C3)cc2)c2c(sc(C)c2C)-n2c(C)nnc21", "note": "[Compound I-129]", "values": [{"measurement": "GI50", "setting": "[1]", "value": "< 0.5", "unit": "µM"}]}, {"compound": "CCNC(=O)C[C@@H]1N=C(c2ccc(N(C)C3CC(OC4CCN(c5ncc(C(=O)N[C@H]6C(C)(C)[C@H](Oc7ccc(C#N)c(Cl)c7)C6(C)C)cn5)CC4)C3)cc2)c2c(sc(C)c2C)-n2c(C)nnc21", "note": "(stereo partly shown) [Compound I-130]", "values": [{"measurement": "GI50", "setting": "[1]", "value": "< 0.5", "unit": "µM"}]}, {"compound": "Cc1sc2c(c1C)C(c1ccc(CC3CC4(CCN(c5ncc(C(=O)N[C@H]6C(C)(C)[C@H](Oc7ccc(C#N)c(Cl)c7)C6(C)C)cn5)CC4)C3)cc1)=N[C@@H](C)c1nnc(C)n1-2", "note": "[Compound I-303]", "values": [{"measurement": "Kd", "setting": "[2]", "value": "< 0.05", "unit": "µM"}]}]}
